The text below walks through data of US6632808B1 (priority 1998, dated 2003).

Like-named read-outs stand apart in the source and are kept apart here. Marks after values point to notes of the source that are not given here.

In general, IC50 refers to the concentration that inhibits the measured activity by half.

In series [1] the test system is PrP-res formation in scrapie infected neuroblastoma (ScNB) cells. Format: cell-based, mouse. The conditions noted are these: for % control PrP-res (at 10 μg TSP/ml): 10 μg/ml (~10 μM) meso-porphyrin, relative to untreated ScNB cells; for IC50: ScNB cells.
In series [2] the target is conversion of hamster PrP-sen to PrP-res (Mesocricetus auratus, UniProt P04273). Format: biochemical. The settings on record: 10 μg/ml tetrapyrrole; for conversion, % of control: mean SD.
The conditions of series [3]: have been reported; cited from earlier work.
For series [4] the following is noted: mouse, in vivo, ip.
[5] abbreviates: footnote b values are half-way between 10-fold dilutions (~±50%), read-out: IC50 (μM), PrP-res formation, meso-porphyrins.

Sequence of conversion of hamster PrP-sen to PrP-res (P04273 23-230 limits assumed): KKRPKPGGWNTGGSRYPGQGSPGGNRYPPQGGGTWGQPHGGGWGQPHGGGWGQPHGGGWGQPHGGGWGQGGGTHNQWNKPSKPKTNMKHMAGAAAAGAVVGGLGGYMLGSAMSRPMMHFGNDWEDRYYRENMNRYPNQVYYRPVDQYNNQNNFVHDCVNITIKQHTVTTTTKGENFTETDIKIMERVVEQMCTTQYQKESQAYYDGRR

`C1=Cc2nc1c(-c1ccncc1)c1ccc([nH]1)c(-c1ccncc1)c1nc(c(-c3ccncc3)c3ccc([nH]3)c2-c2ccncc2)C=C1` [T(4-Py)P]: in series [1], the “% control PrP-res (at 10 μg TSP/ml)” value is listed as 12 ± 0^a %.
Regarding `C[n+]1ccccc1-c1c2nc(c(-c3cccc[n+]3C)c3ccc([nH]3)c(-c3cccc[n+]3C)c3nc(c(-c4cccc[n+]4C)c4ccc1[nH]4)C=C3)C=C2` [T(N-Me-2-Py)P], in series [2], the “inhibition of cell-free conversion, in words” value is “not significantly inhibitory”. Besides, the “% control PrP-res (at 10 μg TSP/ml)” value in series [1] is 4 ± 3%. The half-inhibitory concentration (IC50) in series [1] (setting [5]) is about 5 µM.
With `C[n+]1cccc(-c2c3nc(c(-c4ccc[n+](C)c4)c4ccc([nH]4)c(-c4ccc[n+](C)c4)c4nc(c(-c5ccc[n+](C)c5)c5ccc2[nH]5)C=C4)C=C3)c1` [T(N-Me-3-Py)P], the “% control PrP-res (at 10 μg TSP/ml)” value in series [1] is on record as 50 ± 0^a %.
For `C[n+]1ccc(-c2c3nc(c(-c4cc[n+](C)cc4)c4ccc([nH]4)c(-c4cc[n+](C)cc4)c4nc(c(-c5cc[n+](C)cc5)c5ccc2[nH]5)C=C4)C=C3)cc1` [T(N-Me-4-Py)P], the “conversion, % of control” value in series [2] was 66±18%. Moreover, the “% control PrP-res (at 10 μg TSP/ml)” value in series [1] is recorded as 50 ± 0%.
As to `O=C(O)c1ccc(-c2c3nc(c(-c4ccc(C(=O)O)cc4)c4ccc([nH]4)c(-c4ccc(C(=O)O)cc4)c4nc(c(-c5ccc(C(=O)O)cc5)c5ccc2[nH]5)C=C4)C=C3)cc1` [T(Ph-4-COOH)P], the “% control PrP-res (at 10 μg TSP/ml)” value in series [1] is recorded as 50 ± 0%.
With `C[N+](C)(C)c1ccc(-c2c3nc(c(-c4ccc([N+](C)(C)C)cc4)c4ccc([nH]4)c(-c4ccc([N+](C)(C)C)cc4)c4nc(c(-c5ccc([N+](C)(C)C)cc5)c5ccc2[nH]5)C=C4)C=C3)cc1` [T(Ph-4-NMe^+3)P], the “inhibition of cell-free conversion, in words” value in series [2] is recorded as “not significantly inhibitory”. Also, in series [1] (setting [5]), the IC50 is 5 ± 0.8 µM.
Turning to `O=S(=O)(O)c1ccc(-c2c3nc(c(-c4ccc(S(=O)(=O)O)cc4)c4ccc([nH]4)c(-c4ccc(S(=O)(=O)O)cc4)c4nc(c(-c5ccc(S(=O)(=O)O)cc5)c5ccc2[nH]5)C=C4)C=C3)cc1` [T(Ph-4-SO^−3)P], in series [3], the tolerability result is “well tolerated”. Besides, the “% control PrP-res (at 10 μg TSP/ml)” value in series [1] amounted to 44 ± 31%. The half-inhibitory concentration (IC50) in series [1] (setting [5]) is about 5 µM.
As for Phthalocyanine tetrasulfonate [PcTS], the “time detectable in the spleen after treatment had stopped” value in series [4] is listed as “at least 8 months”. In addition, the “conversion, % of control” value in series [2] was 0±0%. For the same molecule, in series [1] (10 μg Pc/ml (about 10 μM) in medium, 3-4 days, band intensity relative to untreated ScNB cells, mean ± SD), the “% control PrP-res (at 10 μg Pc/ml)” value was under 3%. Besides, the 50% inhibitory concentration (IC50) in series [1] (concentration giving 50% inhibition of PrP-res formation relative to control, footnote a values are half-way between 10-fold dilutions (±50%), read-out: IC50 (μM), PrP-res formation, phthalocyanines) was 0.5 µM.
